Values quoted from earlier work, collected in patent US20090182054A1, “Topical compositions containing solubilized dicarboxylic acids” (priority 2008, published 2009).

Tests used:
[1] = water, 25 deg C
[2] = test system: inflammatory papule lesions and erythema; details: topical application

SMILES: O=C(O)CCCCCCCC(=O)O [azelaic acid, Azelaic acid]
- solubility [1]: 0.24 gram per 100 gram of water
- inflammatory papule lesions and erythema [2]: significantly reduce
